The source of these data is patent US8362236B2, “Macrocyclic compound” (Chugai Seiyaku Kabushiki Kaisha, priority 2007, dated 2013).

The subject of one assay is HCT116 cells. Briefly: Measurement of cell growth inhibition (Cell Counting Kit-8, four days).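 Note: cells exposed to a range of test concentrations at 37 °C in 5% CO2 for four days, then growth read as absorbance with Cell Counting Kit-8.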 As to conditions: Homo sapiens, HCT-116, 96 h, read-out: Cell growth-inhibiting activity (IC50, μM) Colon cancer HCT116, HCT116 colon cancer cell line, four days culture. (In general: Tetrazolium dyes change colour on reduction, which living cells bring about.)
The target of a further assay is T1, Human HSP90 alpha (Homo sapiens, UniProt P07900).
T1 construct: His tag (inferred from purification on a HisPrep FF column); made in house; host or cells: E. coli BL21 codon plus (Stratagene)
Kind of assay: Assay for the activity of inhibiting HSP90 enzyme (ATPase, malachite green). As to conditions: purified human HSP90 alpha, 1 mM ATP added, 37° C. for two hours, OD655; read-out: Enzyme-inhibiting activity (IC50, μM) Human HSP90α. Format: biochemical. The method, then: Introduction of pETHuHSP90a into E. coli (BL21 codon plus; Stratagene) was followed by O/N incubation in the presence of 0.1 mM IPTG, and the collected E. coli cells were disrupted by ultrasonication in a Lysis buffer (50 mM Tris-HCl (pH8.0), 10 mM MgCl2, 0.1% Triton X-100, Protease inhibitor cocktail tablets (Roche Diagnostics)). The cell lysate solution was centrifuged (10,000 rpm×30 minutes), and the supernatant obtained after centrifugation was used as a crude extract. The crude extract was fractionated using HisPrep FF column and HiTrap Q column (Amersham) to prepare a purified enzyme solution.
An enzyme solution for assays was prepared by dilution of the purified enzyme solution using an assay buffer (50 mM Tris HCl pH7.6, 20 mM KCl, 5 mM MgCl2).
10 μL each of various concentrations of the test substances (10% DMSO solution) was added to each well, and for the positive control wells, 10 μL of 10% DMSO was added. 10 μL of 10% DMSO was also added to the negative control well.
10 μL of 1 mM ATP was added to all of the wells, and the reaction was carried out at 37° C. for two hours.

A word on the IC50: it is the concentration at which inhibition is half-maximal.

Experimental for HCT116 cells: Cells were maintained under conditions recommended by the provider of each cell line. Cells suspended in a medium were added to solutions containing various concentrations of the test substance, and the cells were cultured at 37° C. in a 5% CO2 incubator. Four days later, Cell Counting Kit-8 was added, and absorbance measurements were taken following the protocol included in the kit.

Regarding `Cc1cc(C)c2cc1C(=O)NCCC[C@@H](C(=O)NCCO)NC(=O)CCSc1cc-2nc(N)n1` [Compound 46, (S)-4-amino-19,21-dimethyl-10,17-dioxo-7-thia-3,5,11,16-tetraazatricyclo[16.3.1.1^2,6]tricosa-1(21),2,4,6(23),18(22),19-hexaene-12-carboxylic acid (2-hydroxyethyl)amide], the IC50 was > 10 µM in the assay on HCT116 cells and 1.1 µM on Human HSP90 alpha.

In the case of `Cc1cc(C)c2cc1C(=O)NCCC(N)C(=O)NCCSc1cc-2nc(N)n1` (stereo not drawn) [Compound 73, 4,12-diamino-18,20-dimethyl-7-thia-3,5,10,15-tetraazatricyclo[15.3.1.1^2,6]docosa-1(20),2(22),3,5,17(21),18-hexaene-11,16-dione], the IC50 was determined as 0.5 µM with HCT116 cells and 2.3 µM on Human HSP90 alpha.

Consider `Cc1cc(C)c2cc1C(=O)NCCC[C@@H](C(=O)NCC(O)CO)NC(=O)CCSc1cc-2nc(N)n1` (stereo partly drawn) [Compound 48, (S)-4-amino-19,21-dimethyl-10,17-dioxo-7-thia-3,5,11,16-tetraazatricyclo[16.3.1.1^2,6]tricosa-1(21),2,4,6(23),18(22),19-hexaene-12-carboxylic acid (2,3-dihydroxypropyl) amide], for which the IC50 in the assay on HCT116 cells was > 10 µM; at Human HSP90 alpha, 0.8 µM.
